These results are taken from patent US20250186600A1, “EXCIPIENT COMPOUNDS FOR PROTEIN FORMULATIONS” (Comera Life Sciences, Inc., priority 2020, published 2025).

In data set [1] the test system is ustekinumab. The experiment in a line: Urea denaturation, Sypro orange fluorescence (Example 44). The class given is physicochemical. The following applies: excipient 5 mg/mL, ustekinumab 1 mg/mL, 6M urea, 20 mM histidine pH 6.0, Sypro orange fluorescence. The text has this: It is known that urea denatures proteins in solution and causes them to unfold. The screening methodology in this example involved adding a specific concentration of urea to a therapeutic protein solution such as ustekinumab. […] One method to track protein unfolding involves the use of extrinsic fluorescent dyes such as Sypro orange. Sypro orange binds to hydrophobic regions in the unfolded protein structure, leading to an increase in the fluorescence signal observed. Measuring the differences in the fluorescence intensity of unfolded protein-Sypro orange complex in presence of different excipients thus allows one to identify any stabilizing effects.
All excipients used in this Example, listed in Table 45 below, were of the highest purity, and were obtained from Sigma Aldrich (St. Louis, MO) or Cayman Chemical (Ann Arbor, MI). […] This urea stock solution was then added to a final concentration of 6M to produce the test solutions (excipient plus protein plus urea). […] The pH of the mixture was rechecked and confirmed to be at pH 6.0. The test solutions were allowed to incubate at room temperature for 30 min.

Data set [2] relates to ustekinumab. The experiment in a line: Stabilization at low pH, Sypro orange fluorescence (Example 45). The following applies: excipient 5 mg/mL, ustekinumab 1 mg/mL, glycine acidification buffer pH 2.6, Sypro orange fluorescence.
A further data set has as its system infliximab. The experiment in a line: Thermal degradation assay at 55° C., normalized monomer loss rate by HP-SEC (Example 51). The class given is physicochemical. The following applies: infliximab about 2 mg/mL, 20 mM phosphate pH 7, 55° C. The protocol: ® infliximab was obtained from the Clinigen Group and reconstituted according to the instructions in the Janssen package insert, resulting in a 10 mg/mL infliximab solution in 5 mM phosphate buffer, pH about 7, with 50 mg/mL sucrose and 0.05 mg/mL polysorbate 80. The reconstituted drug product was then combined 1:1 by volume with 50 mM sodium acetate buffer at pH 5. The resulting solution was then injected onto a small preparative scale cation exchange column (GE Healthcare, Chicago, IL). After the infliximab was loaded onto the column, the column was washed with 10 column volumes of 50 mM sodium acetate buffer, pH 5. The infliximab was then eluted from the column with five column volumes of a 250 mM sodium chloride, 50 mM sodium acetate buffer at pH 5. […] Stock solutions of either 4 or 8 mg/mL infliximab in 20 mM phosphate buffer at pH 7 were then used in subsequent tests.
All excipients used in this Example, listed in Table 52 below, were of the highest purity, and were obtained from Sigma Aldrich (St. Louis, MO) or Cayman Chemical (Ann Arbor, MI). The stock infliximab solutions were mixed with stock excipient solutions containing the excipients listed in Table 52 formulated in 20 mM phosphate buffer, pH 7 to achieve a final infliximab concentration of about 2 mg/mL in each sample. The samples containing the infliximab solutions and the stock excipient solutions were then aliquoted into five 100 μL aliquots in PCR tubes. […] These stressed samples were then analyzed for monomer content by high performance size exclusion chromatography (HP-SEC) using an Agilent 1100 series HPLC equipped with a diode array detector monitoring absorbance at 280 nm. […] For each sample, the monomer peak area was divided by the monomer peak area obtained from an identical but unstressed sample to obtain the percent monomer remaining after exposure to thermal stress. The remaining monomer as a percentage of the unstressed sample was then plotted as a function of incubation time and the absolute value of the slope of a linear fit to the data was recorded as the monomer loss rate.
A general note: SEC sorts molecules by how far they enter the pores of the column.

A further data set deals with omalizumab. The experiment in a line: DLS viscosity of concentrated omalizumab (Example 53). The class given is physicochemical. More on the design: key to DLS Viscosity, Replicate 1: observation on combining excipient with protein / DLS Viscosity, Replicate 2: observation on combining excipient with protein: * Combination of excipient with protein resulted in reversible precipitation. The following applies: 20 mM HisHCl pH 6; for DLS Viscosity, Replicate 1 / DLS Viscosity, Replicate 2: concentrated omalizumab 9 parts : 1 part excipient stock (1 M or solubility limit). As to the method:
O-(octylphosphoryl)choline was purchased from Sigma Aldrich (St. […] O-(octylphosphoryl)choline was used as a stock excipient without additional preparation. […] In this example, the ratio of apparent radius to the actual radius of the gold nanoparticle was multiplied by the viscosity of water at 25° C. to calculate the viscosity of the protein formulation in centipoise (cP).

Data set [3] can be described thus: Caffeine solubility with co-solutes during refrigerated storage (Example 61). More on the design: key: (PPT)—precipitate observed; (—)—clear solution observed. The class given is physicochemical. The following applies: 50 mM co-solute, 25 mM histidine pH 6, stored 2 to 5° C. As to the method:
The resulting microplates were then sealed with microplate tape and stored in a refrigerator with the temperature maintained in the range of 2 to 5° C. Over the course of storage, the microplates were visually observed for evidence of precipitate in the well.

Where [4] appears, read: concentrated omalizumab 9 parts : 1 part excipient stock.

“And” between values parts separate entries of the source, which are not always exact repeats. Equal values may be shown once. Where a name gives a salt, the structure may show the parent alone.

As for `NC[C@H]1O[C@H](O[C@H]2[C@H](O)[C@@H](O)[C@H](N)C[C@@H]2N)[C@H](N)[C@@H](O)[C@@H]1O` [Neamine], the “% increased stability” value in the data set with ustekinumab [1] came to 2.8%. Besides, the “% change in stability” value in the data set on ustekinumab [2] turned out to be 5.9%.

As to `Cl.N=C(N)NCCC[C@H](N)C(=O)O` [Arg HCl], in the data set with infliximab (excipient 125 mM), the Monomer loss rate is 0.1186 % mon/min and the “Normalized monomer loss rate” value was determined as 0.740.

Turning to `O[C@H]1[C@H](O)[C@@H](O)CN2CC[C@H](O)[C@H]12` [Castanospermine], the “% increased stability” value in the data set with ustekinumab [1] came to 7.0%. Further, the “% change in stability” value in the data set with ustekinumab [2] worked out at 95.9%.

Take `OC(CCN1CCCCC1)(c1ccccc1)c1ccccc1` [Pridinol Methanesulfonate]: in the data set on omalizumab, the “DLS Viscosity, Replicate 1” value is listed as 45.5 cP and the “DLS Viscosity, Replicate 2” value worked out at 36.2 cP.

For `NCCSSCCN` [Cystamine], the “% increased stability” value with ustekinumab [1] is reported as 8.8%. Also, in the data set with ustekinumab [2], the “% change in stability” value stood at 17.8%.

Regarding `NCCCCNCCCN` [Spermidine], in the data set with ustekinumab [1], the “% increased stability” value is 12.9%. The “% change in stability” value with ustekinumab [2] came out at 98.1%.

As for `O=C(O)CCCc1ccccc1` [4-phenylbutyric acid], the “% increased stability” value with ustekinumab [1] turned out to be 9.0%.

As for `[Cl-].[Na+]` [NaCl], in the data set with infliximab (excipient 150 mM), the Monomer loss rate came out at 0.0727 % mon/min and the “Normalized monomer loss rate” value was 0.454.

For `CC(O)(P(=O)(O)O)P(=O)(O)O` [Etidronate], the Monomer loss rate in the data set on infliximab (excipient 25 mM) is 0.0824 % mon/min; in the data set with infliximab (excipient 50 mM), 0.0685 % mon/min; in the data set with infliximab (excipient 100 mM), 0.0321 % mon/min and 0.0284 % mon/min. Also, the “Normalized monomer loss rate” value in the data set with infliximab (excipient 25 mM) was 0.514; with infliximab (excipient 50 mM) it was 0.428; with infliximab (excipient 100 mM), 0.200 and 0.177.

On to `CCN(CC)CCOC(=O)C1(C2CCCCC2)CCCCC1` [Dicyclomine HCl], for which, in the data set with omalizumab (setting [4]), the “DLS Viscosity, Replicate 1: observation on combining excipient with protein” value was “*” and the “DLS Viscosity, Replicate 2: observation on combining excipient with protein” value is recorded as “*”.

Regarding `O=S(=O)(O)CCN1CCN(CCO)CC1` [HEPES], in the data set with omalizumab, the “DLS Viscosity, Replicate 1” value is reported as 15.9 cP and the “DLS Viscosity, Replicate 2” value was found to be 17.4 cP.

For `OC[C@@H](O)[C@@H](O)[C@H](O)[C@@H](O)CO` [Sorbitol], in the data set on infliximab (excipient 200 mM), the Monomer loss rate was found to be 0.0656 % mon/min and the “Normalized monomer loss rate” value worked out at 0.409.

For the compound `CCCCCCCCOP(=O)([O-])OCC[N+](C)(C)C` [O-(octylphosphoryl)choline], in the data set with omalizumab, the “DLS Viscosity, Replicate 1” value is given as 35.6 cP and the “DLS Viscosity, Replicate 2” value was found to be 35.4 cP.

With `CCNC(=O)CC[C@H](N)C(=O)O` [Theanine], the “% increased stability” value with ustekinumab [1] turned out to be 6.1%. Also, the “% change in stability” value in the data set on ustekinumab [2] was determined as 8.3%.

As to `NC(=O)c1cccnc1` [Nicotinamide], the “% increased stability” value with ustekinumab [1] is listed as 2.7%. Also, in data set [3] (caffeine 7.5 mg/mL), the “Day 1 (visual observation for precipitate)” value is given as “—”, the “Day 7 (visual observation for precipitate)” value was “—”, the “Day 18 (visual observation for precipitate)” value is “—” and the “Day 27 (visual observation for precipitate)” value is “—”. Further, the “Day 56 (visual observation for precipitate)” value in data set [3] (caffeine 7.5 mg/mL) is “—”. For the same compound, in data set [3] (caffeine 10 mg/mL), the “Day 1 (visual observation for precipitate)” value was “—”, the “Day 7 (visual observation for precipitate)” value was “—”, the “Day 18 (visual observation for precipitate)” value was “—” and the “Day 27 (visual observation for precipitate)” value is “—”. Besides, the “Day 56 (visual observation for precipitate)” value in data set [3] (caffeine 10 mg/mL) is given as “—”. In data set [3] (caffeine 12.5 mg/mL), the “Day 1 (visual observation for precipitate)” value is listed as “—”, the “Day 7 (visual observation for precipitate)” value is on record as “—”, the “Day 18 (visual observation for precipitate)” value is listed as “—” and the “Day 27 (visual observation for precipitate)” value is given as “—”. Besides, the “Day 56 (visual observation for precipitate)” value in data set [3] (caffeine 12.5 mg/mL) was “—”. In data set [3] (caffeine 15 mg/mL), the “Day 1 (visual observation for precipitate)” value is “—”, the “Day 7 (visual observation for precipitate)” value is “—”, the “Day 18 (visual observation for precipitate)” value is “—” and the “Day 27 (visual observation for precipitate)” value is reported as “—”. Further, the “Day 56 (visual observation for precipitate)” value in data set [3] (caffeine 15 mg/mL) was “PPT”. Also, in data set [3] (caffeine 20 mg/mL), the “Day 1 (visual observation for precipitate)” value is given as “—”, the “Day 7 (visual observation for precipitate)” value is “—”, the “Day 18 (visual observation for precipitate)” value is listed as “PPT” and the “Day 27 (visual observation for precipitate)” value was “PPT”. Also, the “Day 56 (visual observation for precipitate)” value in data set [3] (caffeine 20 mg/mL) is listed as “PPT”.

For the compound `NCCCNCCCCNCCCN` [Spermine], the “% increased stability” value with ustekinumab [1] amounted to 16.8%. Besides, the “% change in stability” value in the data set with ustekinumab [2] came out at 90.0%.
